Reference: article PMC9945734 (BMC Medicine, 2023)
Like-named read-outs stand apart in the source and are kept apart here.

How the values were obtained:
PC-3-KQ cells = test: 3D spheroid invasion assay and screening of FDA-approved drugs; format: cell-based, human; settings: Homo sapiens; for activity at 0.01 µM / activity at 0.1 µM / activity at 1 µM / activity at 10 µM: 72 h, compared to vehicle control, read-out: Invasion rates (%) of each drug’s multiple concentrations
Summary of the method: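 Cells were clustered into spheroids by centrifugation and grown 3 days, then embedded in matrigel-medium containing drug on day 4 and cultured another 3 days. Drugs were screened at 10 μM first, then at 0–10 μM, in duplicate wells. Invasion area is total area minus core sphere area from phase-contrast images.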

MYBL2 promoter = test: ChIP assay of KLF5 binding to the MYBL2 promoter; format: cell-based, human; settings: PC-3-KQ cells treated for 48 h
Procedure: ChIP assay was performed using the SimpleChIP Enzymatic Chromatin IP kit (Cat #: 9003s, Cell Signaling Technology) according to the manufacturer's instructions. Briefly, cells were treated with 1% formaldehyde for 10 min for cross-linking, quenched with glycine for 5 min at room temperature, collected, and digested with micrococcal nuclease for 20 min at 37°C. After stopping the reaction by adding EDTA, DNA was fragmented by sonication, and the extracts were incubated with KLF5 antibody (Cat #: 21017-1-AP, Proteintech) or IgG (Cat #: 2729P, Cell Signaling Technology). […]

[1] = tested on: PC-3 (KLF5 null) cells expressing KLF5; test: CCK-8 cell viability assay; format: cell-based; settings: Homo sapiens, CCK-8, 48 h
Procedure: (§1) According to the manufacturer's instructions, cell viability was measured using a kit from Beyotime Biotechnology. Briefly, cells were seeded onto 96-well plates at 5 × 10^3 cells per well, incubated overnight, and then treated for 48 h with drugs at 0, 0.02, 0.05, 0.14, 0.41, 1.23, 3.7, 11.1, 33.3, and 100 μM. Four drugs were analyzed: furagin, nifuratel, nitazoxanide, and retapamulin. At the end of drug treatment, the medium was removed, the CCK-8 solution was added into each well at 100 μL/well and incubated for 1.5 h at 37°C, and the optical density (OD) was measured at 450 nm using a microplate reader (BioTek).

[2] = tested on: PC-3 (KLF5 null) cells expressing KLF5^K369R; test: CCK-8 cell viability assay; format: cell-based; settings: Homo sapiens, CCK-8, 48 h
Procedure: as §1

[3] = tested on: DU 145 (KLF5 null) cells expressing KLF5; test: CCK-8 cell viability assay; format: cell-based; settings: Homo sapiens, CCK-8, 48 h
Procedure: as §1

[4] = tested on: DU 145 (KLF5 null) cells expressing KLF5^K369R; test: CCK-8 cell viability assay; format: cell-based; settings: Homo sapiens, CCK-8, 48 h
Procedure: as §1

MYBL2 = MYBL2 immunohistochemical staining of bone tissues; format: in vivo, Balb/c nude mice; settings: treatment in mice
Procedure: Immunohistochemical staining was conducted following established procedures. Briefly, 4-μm sections of bone tissues were deparaffinized in xylene and rehydrated in gradient ethanol. The endogenous antigen was retrieved by incubating slides in 10 mM sodium citrate buffer (Cat #: C1010, Solarbio, Beijing, China) overnight in an oven at 65°C. After antigen retrieving, tissue sections were incubated with 3% hydrogen peroxide at room temperature for 10 min to block the endogenous […] activity. They were then incubated in a blocking solution (0.1% albumin bovine V mixed with 10% goat serum) for 40 min, and a solution containing a primary antibody (MMP9, 1:1000, Cat #: ab76003, Abcam, Cambridge, UK; MYBL2, 1:100, Cat #: ab76009, Abcam) for 1.5 h. After rinsing with PBS for 3 times, slides were incubated with the secondary antibody solution for 15 min and then with the DAB solution using the MaxVision II HRP kit (Cat #: KIT-5920, MXB Biotechnologies, Fuzhou, China). Nuclei were counterstained with hematoxylin for 2 min. Slides were then dehydrated with gradient ethanol (75–100%) and xylene and mounted with coverslips using the quick-hardening mounting medium. All slides were scanned using an Aperio VERSA 8 Scanner System (Leica, Wetzlar, Germany) and analyzed using the Image J software (Image J 1.48v, NIH, Bethesda, MD, USA).

RAW264.7 cells = test: Osteoclast differentiation with conditioned medium from NTZ-treated PC-3-KQ cells; format: cell-based; settings: CM from PC-3-KQ cells treated at 2.5 or 5 μM for 36 h; RANKL 10 ng/mL; 7 days
Procedure: In the second in vitro assay, we used conditioned medium (CM) from NTZ-treated Ac-KLF5-expressing cells. PC-3-KQ cells were seeded in 6-well plates at 1 × 10^5 cells per well and cultured overnight. […] Subsequently, the conditioned media (CM) was collected from each group, centrifugated, filtered, aliquoted, and stored at -80°C for further use or used immediately in the co-cultured experiments. […] RAW264.7 cells in 96-well plates with 24-h culture were incubated with the CM-containing medium for 7 days, with the medium replaced every 2 days. The TRAP staining assay was performed to determine the number of differentiated osteoclasts according to the manufacturer's instructions.

[5] = tested on: RAW264.7 cells co-cultured with PC-3-KQ cells; test: Osteoclast differentiation in co-culture of RAW264.7 and PC-3-KQ cells; format: cell-based; settings: 1.25, 2.5, 5 μM, 7 days
Procedure: The third in vitro assay involved direct co-culture between RAW264.7 cells and cancer cells. RAW264.7 cells were seeded in 96-well plates at 700 cells per well and allowed to adhere for 12 h. PC-3-KQ cells were added to each well at 300 cells/well, and the culture continued for 12 h. NTZ was added to treat cells for 48 h at various final concentrations (0, 1.25, 2.5, 5 μM). The RAW264.7 medium was mixed with the PC-3 medium at 7:3, and the mixture was used to replace the culture medium every 2 days. After 7 days, the osteoclast differentiation was determined as described above.

[6] = secondary screening of 87 hit compounds (Table S1)
[7] = third screening of 25 hit compounds (Table S2)

## CC(=O)Oc1ccccc1C(=O)Nc1ncc([N+](=O)[O-])s1 [Nitazoxanide]
PC-3-KQ cells; 0.01 μM (first column so headed), secondary screening of 87 hit compounds (Table S1)
  activity at 0.01 µM: 79.3%
PC-3-KQ cells; 0.01 μM (first column so headed), third screening of 25 hit compounds (Table S2)
  activity at 0.01 µM: 94.1%
PC-3-KQ cells; 0.01 μM (second column so headed), secondary screening of 87 hit compounds (Table S1)
  activity at 0.01 µM: 79.5%
PC-3-KQ cells; 0.01 μM (second column so headed), third screening of 25 hit compounds (Table S2)
  activity at 0.01 µM: 94.3%
PC-3-KQ cells; [6]
  activity at 0.1 µM: 45.6%
  activity at 1 µM: 4.45%
  activity at 10 µM: 3.4%
PC-3-KQ cells; [7]
  activity at 0.1 µM: 44%
  activity at 1 µM: 6.41%
  activity at 10 µM: 1.24%
PC-3-KQ cells; at 0.1 μM, read-out: inhibition of cell invasion
  inhibition at 0.1 µM: > 50%
MYBL2 promoter
  KLF5^K369Q-bound DNA of MYBL2 promoter (-1242 to -1251): significantly decreased KLF5^K369Q-bound DNA
[1]
  IC50: 7 ± 0.7 µM
[2]
  IC50: 11.4 ± 1 µM
[3]
  IC50: 55.6 ± 1.4 µM
[4]
  IC50: 49.2 ± 10.1 µM
MYBL2
  MYBL2 protein expression in bone tissues (IHC): significantly decreased MYBL2 protein expression
RAW264.7 cells
  number of TRAP^+ multinucleated cells: significantly reduced
[5]
  number of TRAP^+ multinucleated cells: significantly decreased
